The text below walks through data of paper PMC10057893, “Synthesis and Biological Evaluation of New Schiff Bases Derived from 4-Amino-5-(3-fluorophenyl)-1,2,4-triazole-3-thione” (Molecules, 2023).

One data set can be described thus: MTT cell viability assay. It is filed as cell-based. The note with it: human, HaCaT cells (immortal keratinocytes), HaCaT normal cell line, 72 h (table footnote), read-out: Cytotoxic activity IC50 (converted). As for the experimental part: (§1) All the cell lines were purchased from the American Type Culture Collection (ATCC, Rockville, MD, USA) and cultured in strictly defined conditions according to the recommended ATCC protocol. The PC3 cells were cultured in RPMI 1640 (Roswell Park Memorial Institute, Biowest SAS, Nuaillé, France), while the MDA-MB-231 and HaCaT cells were maintained in DMEM (Dulbecco’s Modified Eagle’s Medium, Biowest SAS, Nuaillé, France) supplemented with 1% streptomycin and penicillin and in 10% heat-inactivated fetal bovine serum (FBS, Gibco BRL San Francisco, CA, USA) with 1% streptomycin and penicillin. The cells were incubated in a 37 °C/5% CO2 humidified incubator. They were cultured until 80–90% confluence was achieved. Then, they were harvested by treatment with 0.25% trypsin-0.02% EDTA (Gibco BRL, San Francisco, CA, USA) and used in the experiments. Untreated cells were used as a control. […] After 24 h of incubation, the culture medium was replaced with a fresh medium. […] Then, the medium was aspirated and formed formazan crystals were solubilized by adding isopropanol-DMSO mixture (1:1 vol). The intensity of the dissolved crystals was measured using a UVM 340 reader (ASYS Hitech GmbH, Eugendorf, Austria) at a wavelength of 570 nm. Cell viability was estimated by the percentage of MTT reduction in cells to which the tested compounds were added, compared to the control sample, where only the medium was added. The experiments were repeated three times. The IC50 was calculated using GraphPad Prism 9.0.0 (GraphPad Software).
On the technique in general: Tetrazolium dyes change colour on reduction, which living cells bring about.

A further data set relates to PC3. Briefly: MTT cell viability assay. It is filed as cell-based, human. As for the experimental part:
as §1

For the next data set, the system named is MDA-MB-231. Briefly: MTT cell viability assay. It is filed as cell-based, human. As for the experimental part:
as §1

What is called melting point is the temperature, or range, at which the solid turns liquid. The compound `CCCOc1ccc(/C=N/n2c(-c3cccc(F)c3)n[nH]c2=S)cc1` [RO6, 5-(3-fluorofenylo)-4-[(4-propoxybenzylidene)amino]-2,4-dihydro-3H-1,2,4-triazole-3-thione] gave a melting point of 189 to 192 °C.
For orientation: IC50 means the midpoint of a concentration-inhibition curve. Turning to `COc1cccc2c1C(=O)c1c(O)c3c(c(O)c1C2=O)C[C@@](O)(C(=O)CO)C[C@@H]3O[C@H]1C[C@H](N)[C@H](O)[C@H](C)O1` [Doxorubicin, reference compound], the IC50 at 72 h in the data set “MTT cell viability assay” was 300 nM. For the same compound, the IC50 worked out at 300 nM in the data set with PC3 (Homo sapiens, PC-3, PC3, MTT, 72 h (table footnote), read-out: Cytotoxic activity IC50) and 830 nM in the data set on MDA-MB-231 (Homo sapiens, MDA-MB-231, MTT, 72 h (table footnote), read-out: Cytotoxic activity IC50). The “SI (Selectivity Index)” value in the data set on PC3 (IC50 normal cell line (HaCaT)/IC50 PC3) is listed as 1; in the data set with MDA-MB-231 (IC50 normal cell line (HaCaT)/IC50 MDA-MB-231) it was 0.36.
